Experimental data published in patent publication US8604194B2, “Salts of O-desmethyl-venlafaxine” (Lek Pharmaceuticals D.D., priority 2008, dated 2013).

Test: Solubility of desvenlafaxine salts in water at 23° C.
Conditions: for Solubility of desvenlafaxine salts in water: 23° C.

Compound	solubility in water (result in words) (refers to Table 1)	Solubility of desvenlafaxine salts in water
CN(C)CC(c1ccc(O)cc1)C1(O)CCCCC1.O=C[C@H](O)[C@@H](O)[C@H](O)[C@H](O)C(=O)O (stereo not drawn) [O-desmethyl-venlafaxine glucuronate]	good solubility in water	–
CN(C)CC(c1ccc(O)cc1)C1(O)CCCCC1.O=C(O)C1OC(O)C(O)C(O)C1O [glucuronate amorphous, desvenlafaxine D-glucuronate]	–	338 mg/mL
CN(C)CC(c1ccc(O)cc1)C1(O)CCCCC1.O.O=C(O)C1OC(O)C(O)C(O)C1O [glucuronate crystalline, desvenlafaxine D-glucuronate monohydrate]	–	299 mg/mL
